In patent US6369101B1, “Therapeutic method to treat herpes virus infection” (Regents of the University of Minnesota, priority 1999, dated 2002):
Values after ≈ are worked out from the molar mass of the structure shown. Structures can show the parent of a compound that is named as a salt.

Experiments:
HSV-1 strain E-377 = assay: CPE inhibition assay, HSV-1 E377 in human foreskin fibroblast cells; assay type: cell-based, herpes simplex virus type 1; settings: CPE inhibition in HFF cells
Method: (§1) Stock solutions of the compounds used for the testing of antiviral activity against HSV-1 and HSV-2 were prepared in distilled water, filtered through 0.2 μm filter (Acrodisco®, Gelman Sciences, USA) and stored at room temperature until used.
(§2) Human laryngeal epithelial carcinoma cells (HEp-2, ATCC, Rockville, Md.) were used for testing of antiviral compounds by cytopathic effect (CPE) inhibition and plaque reduction assay. Primary human foreskin fibroblast cells (HFF) obtained from Dr. E. R. Kern (Department of Pediatrics, University of Alabama Medical School, 309 Bevill Biomedical Research Building, 845 19th Street South, Birmingham, Ala., 35294-2170), were used for cytopathic effect (CPE) inhibition assay. HEp-2, African green monkey kidney cells (Vero, ATCC), HFF and primary rabbit kidney cells were used to determine the cytotoxic effect of compounds of formula I. These cells were propagated in Dulbeco's modified Eagle's medium (DMEM) (Sigma, USA) supplemented with 10% inactivated fetal calf serum (FCS), 25 mM HEPES, 0.2% sodium bicarbonate and 1% penicillin/-streptomycin at 37° C. in the presence of 5% CO2.
(§3) The antiviral activity of the test compounds was determined against HSV-1 strain F, HSV-2 strain G (ATCC), HSV-1 strain E-377 and HSV-2 strain MS (Dr. E. R. Kern, see above), CMV strain AD 169 (NIH), HCMV (NIH), MCMV (NIH), and VZV strain Ellen (NIH). Highly infective virus stocks of HSV-1 and HSV-2 were prepared by infecting a confluent monolayer of HEp-2 (ATCC) or HFF in 150 cm^2 plastic tissue culture flasks (Falcon, USA) at a multiplicity of infection of 0.5 in DMEM supplemented with 10% inactivated fetal calf serum and 1% penicillin/streptomycin at 37° C. in the presence of 5% CO2. The infected cells were disrupted through three freeze/thaw cycles, and viruses were clarified from large cell debris by low speed centrifugation at 3000 rpm for 10 minutes. The virus suspension was separated, aliquoted and stored at −80° C. until assayed or used for animal infection. The stock HSV-1 (E377) and HSV-2 (MS strain) contained 3.5×10^8 and 1.1×10^7 pfu/ml respectively.
(§4) Low passage HFF cells were seeded into 96-well tissue culture plates 24 hours prior to use at a cell concentration of 2.5×10^4 cells per ml in 0.2 ml of DMEM supplemented with 10% fetal calf serum. After 24 hours of incubation at 37° C. in the presence of 5% CO2, medium was removed and the test compounds were diluted two-fold in DMEM in the 96-well tissue culture plate containing monolayer. […] For both HSV-1 and HSV-2 assays, the virus concentration utilized was 1000 pfu/ml and for HCMV, MCMV, and VZV assay 2500 pfu/ml were used. The plates were then incubated at 37° C. in the presence of 5% CO2 for two to three days for HSV-1 and HSV-2, 10 days for VZV and 14 days for HCMV and MCMV. The virus induced cytopathic effect (CPE) was monitored microscopically every day. CPE of HSV-1 was recognized by cell rounding and clumping, while HSV-2 formed large syncytia along with rounding and clumping of cells. […] EC50s were estimated from graphical plots of percent CPE against the concentration of the test compounds. The EC50s for each compound are the mean of EC50s for three or more independent experiments. After three days of incubation period, media was aspirated and the cells stained with a 0.1% crystal violet solution for 30 minutes. The stain was then removed and the plates were rinsed with tap water, air dried and retained.

HSV-2 strain MS = assay: CPE inhibition assay, HSV-2 MS in human foreskin fibroblast cells; assay type: cell-based, herpes simplex virus type 2; settings: CPE inhibition in HFF cells
Method: as §1, §2, §3, §4

[1] = tested on: Primary human foreskin fibroblast cells (HFF); assay: Cell proliferation assay (cytotoxicity) in HFF cells; assay type: cell-based; settings: Human foreskin fibroblast cells; reduces growth of uninfected cells by 50%
Method: as §2, with “Primary human foreskin fibroblast cells (HFF) obtained from Dr. E. R. Kern (Department of Pediatrics, University of Alabama Medical School, 309 Bevill Biomedical Research Building, 845 19th Street South, Birmingham, Ala., 35294-2170), were used for cytopathic effect (CPE) inhibition assay.” left out
(§5) HFF, Vero and HEp-2 cells were seeded in 24-well tissue culture plates at a concentration of […] in DMEM containing 10% FCS and incubated for 24 hours at 37° C. in the presence of 5% CO2. To the monolayer of these cells 0.5, 1.0, 1.5 and 2.0 ml of solution of antiviral compounds were added in the respective wells in duplicate and the cells were then incubated in a 5% CO2 incubator at 37° C. for 72 hours. The cells were observed daily for any change in morphology. […] At the end of this time, the media-drug solution was removed and the cells washed. One ml of 0.25% trypsin was added to each well and incubated until the cells start to come off of the plate. The cells-media mixture was then pipetted up and down several times to resuspend the cells and 0.2 ml of the cell suspension was added to 9.8 ml of trypan blue and cells were counted using hemocytometer. Each sample was counted three times with three replicate wells per sample.

HSV-1 strain F = assay: CPE inhibition, HSV-1 strain F in HEp-2 cells; further: key: +++ = Complete cytopathic effect; ++ = Moderate cytopathic effect; + = Minimum cytopathic effect; − = No cytopathic effect; assay type: cell-based, herpes simplex virus type 1; settings: conc. per compound (ng/ml)
Description: as §2, §3, §4

HSV-2 strain G = assay: CPE inhibition, HSV-2 strain G in HEp-2 cells; further: key: +++ = Complete cytopathic effect; ++ = Moderate cytopathic effect; + = Minimum cytopathic effect; − = No cytopathic effect; assay type: cell-based, herpes simplex virus type 2; settings: conc. per compound (ng/ml)
Description: as §2, §3, §4

[2] = tested on: Human laryngeal epithelial carcinoma cells (HEp-2); assay: Cytotoxicity in HEp-2 cells; assay type: cell-based; settings: HEp-2 cells; conc. per compound (ng/ml)
Method: as §2, with “Primary human foreskin fibroblast cells (HFF) obtained from Dr. E. R. Kern (Department of Pediatrics, University of Alabama Medical School, 309 Bevill Biomedical Research Building, 845 19th Street South, Birmingham, Ala., 35294-2170), were used for cytopathic effect (CPE) inhibition assay.” left out
as §5

Human Cytomegalovirus = assay: CPE inhibition in stationary cells (visual), HCMV in HFF cells; assay type: cell-based; settings: test compounds in DMSO
Varicella-Zoster Virus = assay: CPE inhibition in stationary cells (visual), VZV in HFF cells; assay type: cell-based; settings: test compounds in DMSO
Epstein-Barr Virus = assay: VCA expression in EBV-infected Daudi cells; settings: Epstein-Barr Virus, Daudi cells, VCA; test compounds in DMSO
Description: Raji is a Burkitt's lymphoma cell line containing 60 EBV genome/cell, and was the primary cell used for screening antiviral activity against EBV early antigen (EA) expression. […] It spontaneously expresses EBV EA in 0.25-0.5% of the cells. It was used in follow-up studies to confirm activity. These cell lines respond to superinfection by EBV by expressing EA-diffuse component EA (D), EA restricted component EA (R), and viral capsid antigen (VCA). […] The cultures were fed twice weekly and the cell concentration was adjusted to 3×10^5/ml. The cells were kept at 37° C. in humidified atmosphere with 5% CO2.
Cells were infected with the P3HR-1 strain of HBV and the test compound was added after adsorption (45 minutes at 37° C.) and washing of the cell cultures. The cultures were incubated for two days in complete medium to allow viral gene expression. Following the 48 hours of incubation, the numbers of cells of each sample was counted and smears were made. Monoclonal antibodies to the different EA components and VCA were then added to the cells and then incubated and washed. This is followed by a fluorescein conjugated rabbit anti-mouse IgG antibody, and the number of fluorescence cells in the smear were counted. The total number of cells in the cultures positive for EA or VCA were then calculated and compared.

Row | Compound | EC50 HSV-1 E377 (HSV-1 strain E-377) [µg/mL] | EC50 HSV-2 MS (HSV-2 strain MS) [µg/mL] | CC50 [1] [µg/mL] | melting point | other results
1 | Allobetulin ethanolamine chlorohydrate | 0.125 | 0.125 | 0.125 |  | 
2 | CC1(C)CCC23CC[C@]4(C)C(CCC5[C@@]6(C)CCC(=O)C(C)(C)C6CC[C@]54C)C2C1OC3=O (stereo partly shown) [Example 10, Allobetulon Lactone] |  |  |  | 333.7 to 335.9 °C (dec.) | 
3 | CC1(C)CCC23CC[C@]4(C)C(CCC5[C@@]6(C)C=C(O)C(=O)C(C)(C)C6CC[C@]54C)C2C1OC3=O (stereo partly shown) [Example 13, Allobetulonlacton 1-ene-2-ol] |  |  |  | 238.8 to 243.6 °C (dec.) | 
4 | CC1(C)CCC23CCC4(C)C(CCC5C6(C)CCC(OC(=O)CCC(=O)O)C(C)(C)C6CCC54C)C2C1OC3 (stereo not shown) [Allobetulin Succinate, Allobetulin, 3-Succinate] | >0.25 | >0.25 | >0.25 |  | Cytopathic Effect (CPE) Inhibition HSV-1 Strain F (HSV-1 strain F): ++; Cytopathic Effect (CPE) Inhibition HSV-2 Strain G (HSV-2 strain G): +; Cell Cytotoxicity [2]: −
5 | CC1(C)CCC23CC[C@]4(C)C(CCC5[C@@]6(C)CC(Br)C(=O)C(C)(C)C6CC[C@]54C)C2C1OC3=O (stereo partly shown) [Example 12, 2-Br-Allobetulonlacton] |  |  |  | 338 to 342.8 °C (dec.) | 
6 | Cc1ccc(S(=O)(=O)OC2CC[C@@]3(C)C(CC[C@]4(C)C3CCC3C5C6OCC5(CCC6(C)C)CC[C@]34C)C2(C)C)cc1 (stereo partly shown) (as salt: tosylate) [Example 9, Allobetulin Tosylate] |  |  |  | 180 to 182.6 °C (dec.) | 
7 | Betulin glycerol oxalate |  |  |  |  | EC50 (Human Cytomegalovirus): >0.1 µg/mL; EC50 (Varicella-Zoster Virus): >0.02 µg/mL; EC50 (Epstein-Barr Virus): 0.0072 µg/mL
8 | CC1(C)CCC23CCC4(C)C(CCC5C6(C)CCC(OC(=O)c7ccccc7C(=O)O)C(C)(C)C6CCC54C)C2C1OC3 (stereo not shown) [Allobetulin 3-phthalate, Allobetulin, 3-Phthalate] | >0.25 | 0.25 (≈ 0.423 µM) | >0.25 |  | Cytopathic Effect (CPE) Inhibition HSV-1 Strain F (HSV-1 strain F): ++; Cytopathic Effect (CPE) Inhibition HSV-2 Strain G (HSV-2 strain G): ++; Cell Cytotoxicity [2]: −
